Reference: ChEMBL document CHEMBL1201862, “PubChem BioAssay data set” (2004)
Active and inactive are the calls of the source.

Key:
[1] = biological target: T1, Rac GTPase-activating protein 1 (Homo sapiens, UniProt Q9H0H5); assay: blockers of MgcRacGAP-driven Rac1 GTP hydrolysis – biochemical, ADP Hunter fluorescence, primary and confirmatory, confirmation (AID 624330); type: functional
T1 sequence (Q9H0H5 whole entry): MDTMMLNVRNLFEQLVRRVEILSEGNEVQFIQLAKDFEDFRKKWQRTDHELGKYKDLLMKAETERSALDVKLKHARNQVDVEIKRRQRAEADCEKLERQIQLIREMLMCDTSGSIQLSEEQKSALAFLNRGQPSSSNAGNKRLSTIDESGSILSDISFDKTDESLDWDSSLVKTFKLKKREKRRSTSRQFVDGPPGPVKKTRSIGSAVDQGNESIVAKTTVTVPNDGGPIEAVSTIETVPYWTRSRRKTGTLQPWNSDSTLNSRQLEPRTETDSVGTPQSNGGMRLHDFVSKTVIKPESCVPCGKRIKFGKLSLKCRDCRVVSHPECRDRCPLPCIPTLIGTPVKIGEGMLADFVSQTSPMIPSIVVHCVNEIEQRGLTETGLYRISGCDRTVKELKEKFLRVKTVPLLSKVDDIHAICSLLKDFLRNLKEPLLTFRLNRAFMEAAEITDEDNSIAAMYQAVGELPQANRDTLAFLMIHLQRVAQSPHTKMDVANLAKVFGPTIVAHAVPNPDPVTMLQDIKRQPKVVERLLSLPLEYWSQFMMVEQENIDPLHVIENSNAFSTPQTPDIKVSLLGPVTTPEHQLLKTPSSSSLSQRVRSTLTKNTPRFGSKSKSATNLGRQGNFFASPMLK

Cytochrome P450 3A4 = Cytochrome P450 3A4 (Homo sapiens, UniProt P08684);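 note: CYP3A4 tested as one member of a cytochrome P450 panel screen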
Cytochrome P450 3A4, sequence (P08684 whole entry): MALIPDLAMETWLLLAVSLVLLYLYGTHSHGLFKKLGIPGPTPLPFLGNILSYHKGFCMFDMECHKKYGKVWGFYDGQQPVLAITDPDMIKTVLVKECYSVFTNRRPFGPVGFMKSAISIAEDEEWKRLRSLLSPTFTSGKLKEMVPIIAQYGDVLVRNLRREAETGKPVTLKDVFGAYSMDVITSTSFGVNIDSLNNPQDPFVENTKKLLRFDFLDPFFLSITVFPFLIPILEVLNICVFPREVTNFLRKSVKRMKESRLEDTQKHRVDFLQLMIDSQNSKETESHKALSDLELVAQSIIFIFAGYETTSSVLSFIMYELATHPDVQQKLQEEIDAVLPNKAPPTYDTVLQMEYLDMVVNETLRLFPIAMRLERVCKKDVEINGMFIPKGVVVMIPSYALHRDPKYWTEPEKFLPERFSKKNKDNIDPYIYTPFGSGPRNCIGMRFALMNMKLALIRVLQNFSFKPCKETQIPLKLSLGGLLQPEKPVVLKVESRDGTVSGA

Cytochrome P450 2C19 = Cytochrome P450 2C19 (Homo sapiens, UniProt P33261); assay: Cytochrome panel assay with activity outcomes. Panel member name: p450-cyp2c19 Compounds with AC50 equal or less than 10 uM are considered active; type: functional; conditions: read-out: AC50
Cytochrome P450 2C19, sequence (P33261 whole entry): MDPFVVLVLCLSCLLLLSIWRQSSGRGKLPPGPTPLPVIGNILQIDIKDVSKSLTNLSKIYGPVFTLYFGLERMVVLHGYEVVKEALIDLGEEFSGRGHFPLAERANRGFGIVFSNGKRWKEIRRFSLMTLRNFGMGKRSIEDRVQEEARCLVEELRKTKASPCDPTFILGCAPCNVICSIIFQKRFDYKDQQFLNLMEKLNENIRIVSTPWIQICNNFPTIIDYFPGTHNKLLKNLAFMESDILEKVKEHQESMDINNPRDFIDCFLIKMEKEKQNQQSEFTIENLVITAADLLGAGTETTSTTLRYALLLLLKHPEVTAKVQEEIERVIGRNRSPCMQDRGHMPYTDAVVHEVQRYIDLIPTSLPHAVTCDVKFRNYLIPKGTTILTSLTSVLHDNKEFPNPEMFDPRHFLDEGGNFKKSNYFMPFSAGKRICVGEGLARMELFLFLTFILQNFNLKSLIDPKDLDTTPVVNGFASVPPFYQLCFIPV

Cytochrome P450 2C9 = Cytochrome P450 2C9 (Homo sapiens, UniProt P11712)
Cytochrome P450 2C9, sequence (P11712 whole entry): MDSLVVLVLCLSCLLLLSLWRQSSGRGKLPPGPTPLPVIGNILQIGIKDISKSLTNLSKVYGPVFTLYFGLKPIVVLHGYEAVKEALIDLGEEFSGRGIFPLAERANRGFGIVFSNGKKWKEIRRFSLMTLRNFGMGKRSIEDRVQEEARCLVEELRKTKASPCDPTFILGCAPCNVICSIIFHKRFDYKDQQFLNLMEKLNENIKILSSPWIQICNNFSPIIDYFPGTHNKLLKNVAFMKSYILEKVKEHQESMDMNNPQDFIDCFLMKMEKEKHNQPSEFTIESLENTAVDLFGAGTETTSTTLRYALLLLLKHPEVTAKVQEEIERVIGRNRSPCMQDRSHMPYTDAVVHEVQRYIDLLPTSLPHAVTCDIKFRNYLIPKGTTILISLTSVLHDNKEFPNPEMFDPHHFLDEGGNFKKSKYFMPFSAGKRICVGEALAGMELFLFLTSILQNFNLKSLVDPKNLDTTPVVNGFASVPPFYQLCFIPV

Cytochrome P450 2D6 = Cytochrome P450 2D6 (Homo sapiens, UniProt P10635);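 note: CYP2D6 member of a cytochrome P450 panel assay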
Cytochrome P450 2D6, sequence (P10635 whole entry): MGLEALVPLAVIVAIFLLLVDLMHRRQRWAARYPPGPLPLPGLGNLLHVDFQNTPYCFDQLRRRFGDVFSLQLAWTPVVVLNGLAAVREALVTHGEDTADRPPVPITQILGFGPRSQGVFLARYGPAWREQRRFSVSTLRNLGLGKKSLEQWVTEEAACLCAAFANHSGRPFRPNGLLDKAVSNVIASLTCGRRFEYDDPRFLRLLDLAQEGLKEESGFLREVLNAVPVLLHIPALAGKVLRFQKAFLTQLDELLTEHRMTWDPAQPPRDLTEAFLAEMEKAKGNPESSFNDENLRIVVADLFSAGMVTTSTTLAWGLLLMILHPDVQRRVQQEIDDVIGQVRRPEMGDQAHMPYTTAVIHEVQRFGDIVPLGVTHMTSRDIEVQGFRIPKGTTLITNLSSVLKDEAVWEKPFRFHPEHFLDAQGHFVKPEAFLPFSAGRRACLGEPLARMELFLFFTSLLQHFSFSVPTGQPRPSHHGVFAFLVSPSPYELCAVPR

Streptococcus = assay: GAS UMAA2166 growth inhibition – luminescence, BacTiterGlo, counter-screen for streptokinase expression inhibitor project, dose response (AID 1915); type: functional, organism-based;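 note: potency for reduction of bacterial viability or growth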
Streptokinase A = biological target: T2, Streptokinase A (Streptococcus pyogenes serotype M1, UniProt P10520); assay: viability-normalized secreted streptokinase activity reduction – plasminogen activation absorbance, OD405, dose response (AID 1914); type: functional, Streptococcus pyogenes M1 GAS;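 note: secreted streptokinase activity via plasminogen activation per viability signal from cell pellet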
T2 sequence (P10520 whole entry): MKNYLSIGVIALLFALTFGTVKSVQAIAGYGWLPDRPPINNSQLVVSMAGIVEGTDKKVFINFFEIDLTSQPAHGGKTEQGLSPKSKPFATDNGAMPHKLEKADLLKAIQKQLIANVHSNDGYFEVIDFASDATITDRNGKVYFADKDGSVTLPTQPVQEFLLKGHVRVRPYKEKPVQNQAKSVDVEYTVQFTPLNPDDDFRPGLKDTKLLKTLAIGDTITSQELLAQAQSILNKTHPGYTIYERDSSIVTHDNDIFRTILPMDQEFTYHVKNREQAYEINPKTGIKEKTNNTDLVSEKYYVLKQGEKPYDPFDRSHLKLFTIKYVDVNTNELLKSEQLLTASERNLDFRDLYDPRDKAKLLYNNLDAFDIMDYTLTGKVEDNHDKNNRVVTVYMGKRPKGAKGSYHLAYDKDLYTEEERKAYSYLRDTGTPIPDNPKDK

[2] = test system: Streptococcus sp. 'group A'; assay: Streptococcus pyogenes SK(-)GAS viability under kanamycin – luminescence, BacTiterGlo, confirmation, counter-screen for streptokinase expression inhibitor project, dose response (AID 1900); type: functional, organism-based
INS1 = assay: INS-1E survival protection against cytokine death – cell-based, luminescence, retest, dose response (AID 449756); type: functional; conditions: Rattus norvegicus;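 note: cell death triggered by IL-1 beta plus TNF-alpha plus IFN-gamma mixture; protective hits raise ATP signal compared with cytokine alone wells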

O=C(O)C1CCCCC1C(=O)Nc1ccc(S(=O)(=O)N2CCOCC2)cc1 (centres undefined)
IC50 [1]: 150 µM (active)

CCCC[P+](CCCC)(CCCC)Cc1ccc(NC(=O)[C@@H](Cc2ccc3ccccc3c2)N=C(NC2CCCCC2)NC2CCCCC2)cc1
AC50 (Cytochrome P450 3A4): 25.1 µM (inconclusive)

Cc1cccc(CNc2ncnc3ccc(-c4ccc(C(=O)N(C)C)cc4)cc23)c1
AC50 (Cytochrome P450 2C19): 39.8 µM (inconclusive)
AC50 (Cytochrome P450 2C9): 0.794 µM (inconclusive)
AC50 (Cytochrome P450 2D6): 25.1 µM (inconclusive)

CC(=O)Nc1ccc(N2C(=O)CSC2c2c(F)cccc2Cl)cc1 (centres undefined)
AC50 (Cytochrome P450 2C19): 39.8 µM (inconclusive)
AC50 (Cytochrome P450 3A4): 22.4 µM (inconclusive)

COc1ccc(Nc2ccc3ccccc3c2)cc1
IC50 [1]: 53.4 µM (active)

O=C(CSc1nnc(NC(=O)c2cccc(F)c2)s1)NCC1CCCO1 (centres undefined)
EC50 (Streptococcus): > 150 µM (not active)
EC50 (Streptokinase A): > 150 µM (not active)
EC50 [2]: > 150 µM (not active)

CCOC(=O)c1c(-c2ccc(C)o2)csc1NC(=O)COC(=O)c1ccc(NC(N)=O)cc1
EC50 (Streptococcus): 68 µM (active)
EC50 (Streptokinase A): 49.5 µM (active)
EC50 [2]: 1.75 µM (active)

O=C(NCC(=O)N(c1ccccc1)C(C(=O)NC1CCCC1)c1cccnc1)c1cccs1 (centres undefined)
AC50 (Cytochrome P450 2C19): 15.8 µM (inconclusive)
AC50 (Cytochrome P450 2C9): 17.8 µM (inconclusive)

O=[N+]([O-])c1ccc(N2CCN(c3ccc(O)cc3)CC2)c(Cl)c1
IC50 [1]: 45 µM (active)

C=CCN(CC=C)C(=O)C1CCN(Cc2ccc(OCc3ccccc3)cc2)CC1
IC50 [1]: 169 µM (active)

O=C(CCCc1nc(-c2ccc(Cl)cc2)no1)NC1CCCC1
AC50 (INS1): 10.2 µM (active)

CCc1cc2c(COC(=O)c3cccc(NS(C)(=O)=O)c3)cc(=O)oc2cc1O
EC50 (Streptococcus): 100 µM (active)
EC50 (Streptokinase A): > 150 µM (not active)
EC50 [2]: 6.8 µM (active)

COc1ccc(Br)cc1CN(C)CC(=O)NCCc1ccccc1
IC50 [1]: 95.5 µM (active)

Cc1ccc(OCC(O)CNC(=O)c2ccccc2C(=O)O)cc1 (centres undefined)
AC50 (Cytochrome P450 2C9): 0.00562 µM (inconclusive)

Oc1oc(-c2ccccc2)nc1/C=N/c1ccccc1
AC50 (Cytochrome P450 3A4): 25.1 µM (inconclusive)

CCCCNC(=O)c1onc(CSc2ccc(C(C)C)cc2)c1C(=O)O
EC50 (Streptococcus): > 150 µM (not active)
EC50 (Streptokinase A): 2.28 µM (active)
EC50 [2]: 3.81 µM (active)

Cc1cc(N)ccc1NC(=O)c1ccccc1
AC50 (Cytochrome P450 2C19): 20 µM (inconclusive)
AC50 (Cytochrome P450 2C9): 0.0224 µM (inconclusive)

Cc1ccc(S(=O)(=O)N2CCCCC2)cc1NC(=O)CN1C(=O)CN(C)C1=O
EC50 (Streptococcus): > 150 µM (not active)
EC50 (Streptokinase A): > 150 µM (not active)
EC50 [2]: > 150 µM (not active)

Cc1c(NC(=O)/C=C/C(=O)O)cccc1[N+](=O)[O-]
AC50 (Cytochrome P450 2C19): 15.8 µM (inconclusive)
AC50 (Cytochrome P450 2C9): 28.2 µM (inconclusive)

CCCN1CCc2cc(O)cc3c2[C@H]1Cc1ccc(O)c(O)c1-3
AC50 (Cytochrome P450 2C9): 39.8 µM (inconclusive)
AC50 (Cytochrome P450 2D6): 15.8 µM (inconclusive)

Cc1cc(C)c(S(=O)(=O)N2CCCCC2)c(C)c1N(C)S(=O)(=O)c1ccccc1
AC50 (Cytochrome P450 3A4): 1.12 µM (inconclusive)

COc1ccc(S(=O)(=O)Nc2ccc3oc(C)c(C(C)=O)c3c2)cc1
AC50 (INS1): 6.13 µM (active)
